Assays:
Assay in all cases: Bliss excess, mean over the matrix (fraction); higher = more synergy
[1] = test system: JHH-7 (Hepatocellular Carcinoma)
Summary of the method: (§1)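 Bliss excess equals the observed combination effect minus the expected value EA + EB − EA·EB, where EA and EB are the effects of each agent alone. Combination Emax is the second-highest inhibition within the matrix. Inhibition was scaled from CellTiter-Glo 2.0 luminescence, with 0 set by vehicle wells and 1 by blank wells, after 72 hours of two-drug dosing of cells plated in 1536-well plates.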

[2] = test system: PFSK-1 (Other Solid Carcinomas)
Summary of the method: as §1

[3] = test system: SNU-C1 (Colorectal Carcinoma)
Summary of the method: as §1

[4] = test system: OVISE (Ovarian Carcinoma)
Summary of the method: as §1

A704 (Kidney Carcinoma) = test system: A704 (Kidney Carcinoma)
Summary of the method: as §1

[5] = test system: SCC-3 (B-Cell Non-Hodgkin's Lymphoma)
Summary of the method: as §1

[6] = test system: SCC-9 (Oral Cavity Carcinoma)
Summary of the method: as §1

[7] = test system: LC4-1 (B-Lymphoblastic Leukemia)
Summary of the method: as §1

[8] = test system: KYSE-50 (Esophageal Squamous Cell Carcinoma)
Summary of the method: as §1

[9] = test system: KINGS-1 (Low Grade Glioma)
Summary of the method: as §1

NB7 (Neuroblastoma) = test system: NB7 (Neuroblastoma)
Summary of the method: as §1

[10] = test system: NCI-N87 (Gastric Carcinoma)
Summary of the method: as §1

[11] = test system: NCI-H513 (Other Solid Carcinomas)
Summary of the method: as §1

[12] = test system: KLE (Endometrial Carcinoma)
Summary of the method: as §1

[13] = test system: NCI-H322M (Lung Adenocarcinoma)
Summary of the method: as §1

EW-18 (Ewing's Sarcoma) = test system: EW-18 (Ewing's Sarcoma)
Summary of the method: as §1

[14] = test system: OCUB-M (Breast Carcinoma)
Summary of the method: as §1

[15] = test system: NCI-H1573 (Lung Adenocarcinoma)
Summary of the method: as §1

EW-13 (Ewing's Sarcoma) = test system: EW-13 (Ewing's Sarcoma)
Summary of the method: as §1

[16] = test system: NCI-H2405 (Lung Adenocarcinoma)
Summary of the method: as §1

Row | SMILES | Bliss excess [1] | Bliss excess [2] | Bliss excess [3] | Bliss excess [4] | Bliss excess (A704 (Kidney Carcinoma)) | Bliss excess [5] | Bliss excess [6] | Bliss excess [7] | Bliss excess [8] | Bliss excess [9] | Bliss excess (NB7 (Neuroblastoma)) | Bliss excess [10] | Bliss excess [11] | Bliss excess [12] | Bliss excess [13] | Bliss excess (EW-18 (Ewing's Sarcoma)) | Bliss excess [14] | Bliss excess [15] | Bliss excess (EW-13 (Ewing's Sarcoma)) | Bliss excess [16]
1 | C[C@@H](c1ccc2nccn2c1)n1nnc2ncc(-c3cnn(C)c3)nc21 [Savolitinib] + Cc1c2c(nn1C)CSCc1cc(n(C)n1)CSc1cc(c3ccccc3c1)OCCCc1c(C(=O)O)n(C)c3c-2c(Cl)ccc13 [AZD5991] (first compound max 1 µM, 7x7, partner max 1 µM) | -0.0404 | 0.02 | -0.0558 | -0.0291 | -0.0508 | 0.0239 | -0.0281 | -0.0133 | -0.0382 | 0.0058 | -0.0221 | -0.0513 | -0.0733 | -0.0822 | -0.0638 | -0.0113 | -0.0393 | -0.036 | -0.0546 | -0.0547
2 | Cn1cnc2c(F)c(Nc3ccc(Br)cc3Cl)c(C(=O)NOCCO)cc21 [Selumetinib] + C=CCn1c(=O)c2cnc(Nc3ccc(N4CCN(C)CC4)cc3)nc2n1-c1cccc(C(C)(C)O)n1 [AZD1775] (first compound max 10 µM, partner max 1 µM) | -0.0198 | -0.0549 | 0.016 | -0.0436 | -0.0211 | 0.0092 | 0.0789 | 0.0314 | -0.0209 | 0.0173 | -0.0305 | 0.023 | -0.0387 | -0.0117 | -0.0097 | -0.147 | -0.0399 | -0.0331 | -0.0742 | 0.0147
3 | Cn1cnc2c(F)c(Nc3ccc(Br)cc3Cl)c(C(=O)NOCCO)cc21 [Selumetinib] + CC(C)n1c(=O)n(C)c2cnc3cc(F)c(-c4ccc(OCCCN5CCCCC5)nc4)cc3c21 [AZD1390] (first compound max 10 µM, 7x7, partner max 0.3 µM) | -0.0517 | -0.0492 | -0.0001 | -0.0339 | -0.0225 | 0.0273 | 0.0185 | -0.0312 | -0.0046 | -0.0115 | -0.0326 | -0.0279 | -0.0769 | -0.0057 | -0.0601 | -0.0359 | -0.0332 | -0.0642 | -0.0428 | 0.0387
4 | Cn1cnc2c(F)c(Nc3ccc(Br)cc3Cl)c(C(=O)NOCCO)cc21 [Selumetinib] + CCN(CCO)CCCOc1ccc2c(Nc3cc(CC(=O)Nc4cccc(F)c4)[nH]n3)ncnc2c1 [AZD2811] (first compound max 10 µM, 7x7, partner max 1 µM) | -0.0518 | -0.0438 | -0.0494 | 0.0202 | -0.058 | 0.11 | 0.0722 | -0.0505 | 0.005 | -0.0447 | 0.0229 | -0.0173 | -0.0583 | -0.0456 | -0.0069 | -0.0241 | -0.0959 | -0.0318 | -0.0108 | -0.0127
5 | Cn1cnc2c(F)c(Nc3ccc(Br)cc3Cl)c(C(=O)NOCCO)cc21 [Selumetinib] + C[C@@H]1COCCN1C2=NC(=NC(=C2)C3(CC3)[S@](=N)(=O)C)C4=C5C=CNC5=NC=C4 [AZD6738] (first compound max 10 µM, 7x7, partner max 10 µM) | -0.0073 | -0.0535 | -0.0453 | -0.0405 | -0.039 | 0.0368 | -0.0302 | -0.0168 | 0.0013 | 0.0148 | -0.0257 | -0.0604 | 0.0555 | 0.01 | -0.0415 | -0.0471 | -0.0604 | 0.0488 | -0.0267 | 0.0971
6 | CC(=O)Nc1cccc(-n2c(=O)n(C3CC3)c(=O)c3c(Nc4ccc(I)cc4F)n(C)c(=O)c(C)c32)c1 [Trametinib] + Cc1nc(-c2cn3c(n2)-c2ccc(-c4cnn(C(C)(C)C(N)=O)c4)cc2OCC3)n(C(C)C)n1 [Taselisib] (first compound max 1 µM, 7x7, partner max 10 µM) | 0.0427 | -0.0681 | -0.0022 | 0.0114 | -0.0243 | 0.206 | 0.192 | 0.107 | 0.108 | 0.151 | -0.0716 | 0.067 | 0.0563 | -0.0509 | 0.0404 | 0.0163 | -0.0123 | 0.088 | -0.0107 | 0.107
7 | CC1(C)CCC(CN2CCN(c3ccc(C(=O)NS(=O)(=O)c4ccc(NCC5CCOCC5)c([N+](=O)[O-])c4)c(Oc4cnc5[nH]ccc5c4)c3)CC2)=C(c2ccc(Cl)cc2)C1 [Venetoclax] + C1CN(CCC1(C(=O)N[C@@H](CCO)C2=CC=C(C=C2)Cl)N)C3=NC=NC4=C3C=CN4 [Capivasertib] (first compound max 1 µM, 7x7, partner max 3 µM) | -0.0266 | 0.0634 | -0.109 | -0.0059 | -0.079 | -0.0335 | -0.0438 | 0.0227 | -0.0418 | -0.0696 | -0.0301 | -0.0833 | -0.071 | -0.106 | -0.103 | -0.0281 | -0.0222 | -0.0733 | -0.0302 | -0.0418

— the supplement of paper PMC11061612
